Laboratory results from patent US11753408B2, “Compounds and method for blocking transmission of malarial parasite” (The United States of America, as represented by the …, priority 2016, dated 2023).
Like-named read-outs stand apart in the source and are kept apart here.

What was measured:
PAMPA permeability = type: in vitro ADME
[1] = Microsomal stability (rat); type: in vitro ADME; conditions: rat microsomes
Solubility at pH 7.4 = type: physicochemical
[2] = tested on: Asexual parasites of P. falciparum strain 3D7; test: In vitro drug activity on asexual parasites (SYBR Green assay); type: cell-based, Plasmodium falciparum
In short: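 SYBR Green I fluorescence (ex 490, em 520 nm) was read after freeze-thaw lysis and 30 min staining at room temperature. Before that, drug-treated cultures (0.5% parasitemia, 2% hematocrit, DMSO ≤0.5%) were incubated 72 h, in duplicate.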

[3] = tested on: Stage III-V gametocytes (blood stage P. falciparum parasites); test: In vitro drug activity on gametocytes (AlamarBlue viability assay); type: cell-based, Plasmodium falciparum; conditions: read-out: Gametocyte EC50
In short: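 Viability was measured by AlamarBlue fluorescence (Ex 525/Em 598 nm) after 24 h dye incubation following 72 h compound exposure at 37° C, 5% CO2. Gametocytes, stage III–V from strains 3D7, HB3 and Dd2, were NAG/Percoll-enriched and plated at 20,000 cells/well.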

[4] = P. falciparum 3D7 asexual parasites, 72 h, SYBR Green
[5] = P. falciparum stage III-V gametocytes, 72 h incubation, AlamarBlue

Question: For CS(=O)(=O)c1ccc(-n2c(=O)ccc3cnc4ccc(-c5ccc(Cl)c(C(N)=O)c5)cc4c32)cc1 [Compound 51], which “PAMPA Permeability (×10^6 cm/s)” value (PAMPA permeability) is on record?
Answer: 43.1 ×10^6 cm/s

Question: And the “Microsomal Stability (rat) T1/2” value [1]?
Answer: >30.0 min

Question: What about the “Sol @ pH 7.4 (ug/mL)” value (Solubility at pH 7.4) of the same molecule?
Answer: 4.3 ug/mL

Question: And the EC50 [2, 4]?
Answer: 0.203 µM

Question: What about the EC50 [3, 5] of the same molecule?
Answer: 0.291 µM

Question: For CN(C)Cc1ccc(-c2ccc3ncc4ccc(=O)n(-c5ccc(S(=O)(=O)NC6CC6)cc5)c4c3c2)cc1 [Compound 57], which “PAMPA Permeability (×10^6 cm/s)” value (PAMPA permeability) is on record?
Answer: 527.8 ×10^6 cm/s

Question: And the “Microsomal Stability (rat) T1/2” value [1]?
Answer: >30.0 min

Question: And the “Sol @ pH 7.4 (ug/mL)” value (Solubility at pH 7.4)?
Answer: 7.9 ug/mL

Question: What about the EC50 [2, 4] of the same molecule?
Answer: 0.381 µM

Question: What about the EC50 [3, 5] of the same molecule?
Answer: 0.84 µM

Question: With O=C(c1ccc(-n2c(=O)ccc3cnc4ccc(-c5ccc(Cl)cc5)cc4c32)cc1)N1CCOCC1 [Compound 85] as the molecule, how does the PAMPA Permeability (PAMPA permeability) read?
Answer: 7940 nm/s

Question: What about the “Microsomal Stability (rat) T1/2” value [1] of the same molecule?
Answer: 9 min

Question: And the “Sol @ pH 7.4” value (Solubility at pH 7.4)?
Answer: <1.0 ug/mL

Question: What about the EC50 [2] of the same molecule?
Answer: 0.0069 µM

Question: And the EC50 [3]?
Answer: 0.0776 µM

Question: Which results are given for COC(=O)c1cc(-c2ccc3ncc4ccc(=O)n(-c5ccc(S(C)(=O)=O)cc5)c4c3c2)ccc1Cl [Compound 49]?
Answer: PAMPA Permeability (×10^6 cm/s) (PAMPA permeability): 235.8 ×10^6 cm/s; Microsomal Stability (rat) T1/2 [1]: 4.3 min; Sol @ pH 7.4 (ug/mL) (Solubility at pH 7.4): <1.0 ug/mL; EC50 [2, 4]: 3.19 µM; EC50 [3, 5]: 1.99 µM

Question: Which results are given for CS(=O)(=O)c1ccc(-n2c(=O)ccc3cnc4ccc(-c5ccc(Cl)c(C(=O)N6CCOCC6)c5)cc4c32)cc1 [Compound 52]?
Answer: PAMPA Permeability (×10^6 cm/s) (PAMPA permeability): 200.8 ×10^6 cm/s; Microsomal Stability (rat) T1/2 [1]: <1.0 min; Sol @ pH 7.4 (ug/mL) (Solubility at pH 7.4): 57.2 ug/mL; EC50 [2, 4]: 14.7 µM; EC50 [3, 5]: 35.2 µM

Question: With Nc1ccc(-c2ccc3ncc4ccc(=O)n(-c5ccc6c(c5)C(=O)NC6)c4c3c2)cn1 [Compound 387] as the molecule, how does the “PAMPA Permeability (×10^6 cm/s)” value (PAMPA permeability) read?
Answer: <4.1 ×10^6 cm/s

Question: What about the “Microsomal Stability (rat) T1/2” value [1] of the same molecule?
Answer: >30.0 min

Question: And the “Sol @ pH 7.4 (ug/mL)” value (Solubility at pH 7.4)?
Answer: 1.4 ug/mL

Question: And the EC50 [2, 4]?
Answer: 0.316 µM

Question: What about the EC50 [3, 5] of the same molecule?
Answer: 1.84 µM

Question: Which “PAMPA Permeability (×10^6 cm/s)” value (PAMPA permeability) does the source give for CN(C)Cc1ccc(-c2ccc3ncc4ccc(=O)n(-c5ccc6c(c5)CCC(=O)N6)c4c3c2)cc1 [Compound 357] here?
Answer: 40.53 ×10^6 cm/s

Question: And the “Microsomal Stability (rat) T1/2” value [1]?
Answer: >30.00 min

Question: And the “Sol @ pH 7.4 (ug/mL)” value (Solubility at pH 7.4)?
Answer: >70.00 ug/mL

Question: And the EC50 [2, 4]?
Answer: 0.863 µM

Question: What about the EC50 [3, 5] of the same molecule?
Answer: 2.2 µM

Question: For CN(C)Cc1ccc(-c2ccc3ncc4ccc(=O)n(-c5ccc6c(c5)C(=O)NC6)c4c3c2)cc1 [Compound 349], which “PAMPA Permeability (×10^6 cm/s)” value (PAMPA permeability) is on record?
Answer: 2.5 ×10^6 cm/s

Question: And the “Microsomal Stability (rat) T1/2” value [1]?
Answer: >30.0 min

Question: What about the “Sol @ pH 7.4 (ug/mL)” value (Solubility at pH 7.4) of the same molecule?
Answer: >68.0 ug/mL

Question: What about the EC50 [2, 4] of the same molecule?
Answer: 14.2 µM

Question: And the EC50 [3, 5]?
Answer: 26.8 µM

Question: Which “PAMPA Permeability (×10^6 cm/s)” value (PAMPA permeability) does the source give for NC1(c2ccc(-c3ccc4ncc5ccc(=O)n(-c6ccc7c(c6)CNC7=O)c5c4c3)cc2)CCC1 [Compound 368] here?
Answer: 2.9 ×10^6 cm/s

Question: And the “Microsomal Stability (rat) T1/2” value [1]?
Answer: >30 min

Question: What about the “Sol @ pH 7.4 (ug/mL)” value (Solubility at pH 7.4) of the same molecule?
Answer: 6.5 ug/mL

Question: And the EC50 [2, 4]?
Answer: 1.28 µM

Question: What about the EC50 [3, 5] of the same molecule?
Answer: 2.19 µM

Question: Which “PAMPA Permeability (×10^6 cm/s)” value (PAMPA permeability) does the source give for CN(C)Cc1ccc(-c2ccc3ncc4ccc(=O)n(-c5cccc(C#N)c5)c4c3c2)cc1 [Compound 2] here?
Answer: 1040.6 ×10^6 cm/s

Question: What about the “Microsomal Stability (rat) T1/2” value [1] of the same molecule?
Answer: >30.0 min

Question: What about the “Sol @ pH 7.4 (ug/mL)” value (Solubility at pH 7.4) of the same molecule?
Answer: >64.0 ug/mL

Question: And the EC50 [2, 4]?
Answer: 0.291 µM

Question: And the EC50 [3, 5]?
Answer: 0.427 µM

Question: What does the source list for CN(C)Cc1ccc(-c2ccc3ncc4ccc(=O)n(-c5ccc(S(C)(=O)=O)cc5)c4c3c2)cc1 [Compound 30]?
Answer: PAMPA Permeability (×10^6 cm/s) (PAMPA permeability): 677.9 ×10^6 cm/s; Microsomal Stability (rat) T1/2 [1]: >30.0 min; Sol @ pH 7.4 (ug/mL) (Solubility at pH 7.4): 30.4 ug/mL; EC50 [2, 4]: 0.118 µM; EC50 [3, 5]: 0.336 µM

Question: With NCc1cccc(-c2ccc3ncc4ccc(=O)n(-c5ccc6c(c5)CNC6=O)c4c3c2)c1 [Compound 370] as the molecule, how does the “PAMPA Permeability (×10^6 cm/s)” value (PAMPA permeability) read?
Answer: <1 ×10^6 cm/s

Question: What about the “Microsomal Stability (rat) T1/2” value [1] of the same molecule?
Answer: >30 min

Question: And the “Sol @ pH 7.4 (ug/mL)” value (Solubility at pH 7.4)?
Answer: 27.3 ug/mL

Question: And the EC50 [2, 4]?
Answer: 0.296 µM

Question: And the EC50 [3, 5]?
Answer: 4.12 µM

Question: Which results are given for CN(C)CCc1ccc(-c2ccc3ncc4ccc(=O)n(-c5ccc6c(c5)CNC6=O)c4c3c2)cc1 [Compound 375]?
Answer: PAMPA Permeability (×10^6 cm/s) (PAMPA permeability): <1.1 ×10^6 cm/s; Microsomal Stability (rat) T1/2 [1]: >30 min; Sol @ pH 7.4 (ug/mL) (Solubility at pH 7.4): 13.1 ug/mL; EC50 [2, 4]: 0.389 µM; EC50 [3, 5]: 0.715 µM
